This assay addresses GRK5 (Homo sapiens, UniProt P34947). In words: In vitro tubulin phosphorylation assay with purified GRK5. Format: biochemical. The settings on record: 10 μM DFPQ, FIG. 3C. On the procedure: FIGS. 3A-3D: DFPQ inhibits GRK-mediated phosphorylation of the β2AR. FIG. 3A: Representative time course of agonist promoted phosphorylation of the β2AR. […] Cells were lysed and the FLAG-β2AR was immunoprecipitated. Phosphorylation at […] and 356 was analyzed by western blot using a pSer^355/356 antibody while total β2AR was measured using a β2AR C-terminal antibody. The western blot is representative of at least 3 experiments and is quantified in FIG. 3B. FIG. 3C: […] FIG. 3D: Bar graphs represent pixel densitometry of radiolabeled tubulin at the 60 min timepoint from 4 experiments. […]® ADRB2 cells (DiscoveRx) were maintained with the AssayCompleteTM Cell Culture kit (DiscoveRx catalog #92-[…]). […] Cells were read every three minutes for 18 minutes on a PolarStar Optima plate reader (BMG) to establish peak signal. […] Luminescence was determined at room temperature (23-25° C.) on a PolarStar Optima plate reader (BMG). […] Relative assay bias was calculated from the ratio of normalized cAMP and arrestin recruitment responses. […] BRET was measured using a Tecan Infinite F500 microplate reader. […] Bound [35 S]GTPγS was collected by rapid filtration on GF/B filters, washed 4 times with 4 ml of cold GTPγS wash buffer and analyzed by liquid scintillation counting. […] Immunoprecipitated proteins were separated by SDS-PAGE and analyzed by western blot using a β2AR C-terminal tail or phospho-specific antibody. […]

Chain of GRK5 (P34947 whole entry, species assumed): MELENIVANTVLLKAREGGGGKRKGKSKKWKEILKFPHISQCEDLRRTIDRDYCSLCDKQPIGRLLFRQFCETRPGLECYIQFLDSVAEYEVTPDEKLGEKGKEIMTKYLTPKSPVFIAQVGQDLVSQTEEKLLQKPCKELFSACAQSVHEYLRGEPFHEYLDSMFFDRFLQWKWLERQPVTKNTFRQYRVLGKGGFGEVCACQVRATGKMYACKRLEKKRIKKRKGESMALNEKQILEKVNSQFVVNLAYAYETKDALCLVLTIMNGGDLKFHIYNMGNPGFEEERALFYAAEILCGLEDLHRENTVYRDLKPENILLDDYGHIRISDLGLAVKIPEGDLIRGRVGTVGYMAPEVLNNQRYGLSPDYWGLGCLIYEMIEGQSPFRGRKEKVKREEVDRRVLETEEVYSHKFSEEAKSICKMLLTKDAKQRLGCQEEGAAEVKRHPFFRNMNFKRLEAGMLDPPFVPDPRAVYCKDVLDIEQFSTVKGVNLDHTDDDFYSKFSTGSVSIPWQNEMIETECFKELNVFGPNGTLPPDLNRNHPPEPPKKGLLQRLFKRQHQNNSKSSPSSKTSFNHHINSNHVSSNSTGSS

Take `Fc1ccc(Nc2nc(NC3CCCCC3)c3ccccc3n2)cc1F` [DFPQ, N^4-cyclohexyl-N^2-(3,4-difluorophenyl)quinazoline-2,4-diamine]: the GRK5 autophosphorylation result is “lack of an effect”. In addition, the “phosphorylation of tubulin by GRK5” value (60-minute time course) is “unaffected”.

Source of the values: patent US20240166626A1, “Compounds and Methods for Preventing, Treating, or Ameliorating Airway Disease” (THOMAS JEFFERSON UNIVERSITY, priority 2021, published 2024).
